Calls of active or inactive are those of the source. The rule behind the calls is not given here.
How the values were obtained:
[1] = Apparent oral clearance in Wistar rat at 10 mg/kg, po; type: ADME, organism-based; set-up: dose 10 mg/kg, route oral; conditions: in vivo
[2] = target: Stromelysin-1 (Homo sapiens) (UniProt P08254); assay: Inhibition of MMP3 at 10 uM
[3] = test system: Mus musculus; assay: Toxicity in nude BALB/c mouse xenografted with human Ramos cells assessed as maximum body weight loss at 50 mg/kg, po QD for 21 days measured on day 12; type: organism-based; set-up: dose 50 mg/kg, route oral; conditions: in vivo, 504 h
[4] = test system: Mus musculus; assay: Toxicity in nude BALB/c mouse xenografted with human PC3 cells assessed as mortality at 50 mg/kg, po QD for 21 days measured on day 22; type: organism-based, PC-3; set-up: dose 50 mg/kg, route oral; conditions: in vivo, 504 h
[5] = Terminal half life in nude BALB/c mouse at 10 mg/kg, iv; type: ADME, organism-based; set-up: dose 10 mg/kg, route intravenous; conditions: in vivo, read-out: beta t1/2 (converted)
[6] = Terminal half life in Wistar rat at 2 mg/kg, iv; type: ADME, organism-based; set-up: dose 2 mg/kg, route intravenous; conditions: in vivo, read-out: beta t1/2 (converted)
[7] = Half life in mouse liver microsomes; type: ADME, Microsome; conditions: liver microsomes
[8] = test system: Mus musculus; assay: Toxicity in nude BALB/c mouse xenografted with human MV4-11 cells assessed as maximum body weight loss at 25 mg/kg, po QD for 21 days measured on day 12; type: organism-based; set-up: dose 25 mg/kg, route oral; conditions: in vivo, 504 h
[9] = test system: Mus musculus; assay: Toxicity in nude BALB/c mouse xenografted with human A2780 cells assessed as mortality at 100 mg/kg, po QD for 21 days measured on day 9; type: organism-based; set-up: dose 100 mg/kg, route oral; conditions: in vivo, 504 h
[10] = AUC (0 to infinity) in Beagle dog at 2 mg/kg, iv; type: ADME, organism-based, Canis lupus familiaris; set-up: time infinity, dose 2 mg/kg, route intravenous; conditions: plasma
[11] = Tmax in Beagle dog at 10 mg/kg, po; type: ADME, organism-based, Canis lupus familiaris; set-up: dose 10 mg/kg, route oral; conditions: in vivo
[12] = target: Voltage-gated inwardly rectifying potassium channel KCNH2 (Homo sapiens, UniProt Q12809); assay: Displacement of [3H]-dofetilide from human ERG receptor at 10 uM
Chain of Voltage-gated inwardly rectifying potassium channel KCNH2 (Q12809 whole entry): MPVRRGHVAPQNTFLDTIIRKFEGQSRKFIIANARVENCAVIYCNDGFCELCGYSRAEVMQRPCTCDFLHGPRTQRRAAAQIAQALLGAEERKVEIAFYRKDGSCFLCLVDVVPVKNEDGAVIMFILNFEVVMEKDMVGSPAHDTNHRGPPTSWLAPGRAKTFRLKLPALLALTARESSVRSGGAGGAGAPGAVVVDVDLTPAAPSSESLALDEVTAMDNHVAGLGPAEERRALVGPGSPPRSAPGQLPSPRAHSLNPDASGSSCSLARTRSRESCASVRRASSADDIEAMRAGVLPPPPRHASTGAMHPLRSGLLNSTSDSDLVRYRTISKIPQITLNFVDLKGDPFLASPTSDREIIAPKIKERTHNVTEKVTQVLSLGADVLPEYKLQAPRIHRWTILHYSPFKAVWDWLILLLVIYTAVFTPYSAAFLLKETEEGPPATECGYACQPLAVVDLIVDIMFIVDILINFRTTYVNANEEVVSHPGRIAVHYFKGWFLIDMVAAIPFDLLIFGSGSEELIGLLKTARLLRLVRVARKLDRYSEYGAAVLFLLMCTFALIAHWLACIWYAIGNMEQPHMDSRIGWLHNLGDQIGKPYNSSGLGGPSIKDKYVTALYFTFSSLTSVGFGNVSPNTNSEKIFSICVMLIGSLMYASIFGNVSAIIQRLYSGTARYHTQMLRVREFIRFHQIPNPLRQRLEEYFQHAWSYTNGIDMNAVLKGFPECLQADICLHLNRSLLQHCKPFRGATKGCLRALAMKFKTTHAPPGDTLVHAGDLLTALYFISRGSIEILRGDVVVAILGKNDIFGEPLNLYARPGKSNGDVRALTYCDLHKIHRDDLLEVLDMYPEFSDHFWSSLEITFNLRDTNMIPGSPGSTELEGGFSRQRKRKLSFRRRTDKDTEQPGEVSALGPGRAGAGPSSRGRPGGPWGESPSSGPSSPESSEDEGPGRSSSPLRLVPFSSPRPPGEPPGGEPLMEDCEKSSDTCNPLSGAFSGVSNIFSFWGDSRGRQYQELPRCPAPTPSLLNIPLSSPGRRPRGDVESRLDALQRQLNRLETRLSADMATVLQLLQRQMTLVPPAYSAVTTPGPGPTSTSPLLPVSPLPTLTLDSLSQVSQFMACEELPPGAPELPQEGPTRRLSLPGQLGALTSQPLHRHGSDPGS

[13] = Plasma protein binding in human at 1000 ng/mL; type: ADME, cell-free; conditions: read-out: PPB (converted)
[14] = Apparent oral clearance in nude BALB/c mouse at 10 mg/kg, iv; type: ADME, organism-based; set-up: dose 10 mg/kg; conditions: in vivo
[15] = Volume of distribution at steady state in Beagle dog at 2 mg/kg, iv; type: ADME, organism-based, Canis lupus familiaris; set-up: dose 2 mg/kg, route intravenous; conditions: in vivo, read-out: Vdss
[16] = test system: Mus musculus; assay: Toxicity in nude BALB/c mouse xenografted with human HCT116 cells assessed as mouse survival at 50 mg/kg, po QD for 21 days measured on day 22; type: organism-based, HCT-116; set-up: dose 50 mg/kg, route oral; conditions: in vivo, 504 h
[17] = Terminal half life in Beagle dog at 10 mg/kg, po; type: ADME, organism-based, Canis lupus familiaris; set-up: dose 10 mg/kg, route oral; conditions: in vivo, read-out: beta t1/2 (converted)
[18] = Time required for attaining concentration above IC50 of HDAC1 in tumor of nude BALB/c mouse xenografted with HCT116 cells at 50 mg/kg, po administered as single dose; type: ADME, organism-based, Neoplasm, HCT-116; set-up: dose 50 mg/kg, route oral; conditions: in vivo
[19] = Solubility of the compound in 0.9% NaCl; type: physicochemical
[20] = test system: MV4-11; assay: Antiproliferative activity against human MV4-11 cells; type: functional, cell-based
[21] = test system: HCT-116; assay: Antitumor activity against human HCT116 cells xenografted in nude BALB/c mouse assessed as tumor growth inhibition at 50 mg/kg, po qd for 21 days; type: functional; conditions: HCT-116, 504 h, read-out: TGI
[22] = Volume of distribution at steady state in nude BALB/c mouse at 10 mg/kg, iv; type: ADME, organism-based; set-up: dose 10 mg/kg, route intravenous; conditions: in vivo, read-out: Vdss
[23] = Apparent oral clearance in Beagle dog at 2 mg/kg, iv; type: ADME, organism-based, Canis lupus familiaris; set-up: dose 2 mg/kg; conditions: in vivo
[24] = AUC (0 to infinity) in nude BALB/c mouse at 50 mg/kg, po; type: ADME, organism-based; set-up: time infinity, dose 50 mg/kg, route oral; conditions: plasma
[25] = test system: Ramos; assay: Antiproliferative activity against human Ramos cells; type: functional, cell-based
[26] = Time required for attaining concentration above IC50 of HDAC1 in tumor of nude BALB/c mouse xenografted with HCT116 cells at 100 mg/kg, po administered as single dose; type: ADME, organism-based, Neoplasm, HCT-116; set-up: dose 100 mg/kg, route oral; conditions: in vivo
[27] = test system: Mus musculus; assay: Toxicity in nude BALB/c mouse xenografted with human MV4-11 cells assessed as maximum body weight loss at 50 mg/kg, po QD for 21 days measured on day 19; type: organism-based; set-up: dose 50 mg/kg, route oral; conditions: in vivo, 504 h
[28] = Apparent permeability from basolateral to apical side of human Caco2 cells; type: ADME, cell-based; conditions: Caco-2
[29] = AUC (0 to infinity) in Wistar rat at 10 mg/kg, po; type: ADME, organism-based; set-up: time infinity, dose 10 mg/kg, route oral; conditions: plasma
[30] = test system: A2780; assay: Antitumor activity against human A2780 cells xenografted in nude BALB/c mouse assessed as tumor growth inhibition at 50 mg/kg, po qd for 21 days measured on day 9; type: functional; conditions: read-out: TGI
[31] = Volume of distribution at steady state in Wistar rat at 2 mg/kg, iv; type: ADME, organism-based; set-up: dose 2 mg/kg, route intravenous; conditions: in vivo, read-out: Vdss
[32] = test system: Mus musculus; assay: Toxicity in nude BALB/c mouse xenografted with human HCT116 cells assessed as mouse survival at 100 mg/kg, po QD for 21 days measured on day 22; type: organism-based, HCT-116; set-up: dose 100 mg/kg, route oral; conditions: in vivo, 504 h
[33] = test system: Mus musculus; assay: Toxicity in nude BALB/c mouse xenografted with human HCT116 cells assessed as body weight loss at 100 mg/kg, po QD for 21 days measured on day 20; type: organism-based, HCT-116; set-up: dose 100 mg/kg, route oral; conditions: in vivo, 504 h
[34] = Plasma protein binding in mouse at 1000 ng/mL; type: ADME, cell-free; conditions: read-out: PPB (converted)
[35] = Half life in rat liver microsomes; type: ADME, Microsome
[36] = Plasma protein binding in rat at 1000 ng/mL; type: ADME, cell-free; conditions: read-out: PPB (converted)
[37] = AUC (0 to infinity) in nude BALB/c mouse at 10 mg/kg, iv; type: ADME, organism-based; set-up: time infinity, dose 10 mg/kg, route intravenous; conditions: plasma
[38] = test system: Mus musculus; assay: Toxicity in nude BALB/c mouse xenografted with human MV4-11 cells assessed as mortality at 50 mg/kg, po QD for 21 days measured on day 21; type: organism-based; set-up: dose 50 mg/kg, route oral; conditions: in vivo, 504 h
[39] = Plasma protein binding in dog at 1000 ng/mL; type: ADME, cell-free, Canis lupus familiaris; conditions: read-out: PPB (converted)
[40] = AUC (0 to infinity) in Wistar rat at 2 mg/kg, iv; type: ADME, organism-based; set-up: time infinity, dose 2 mg/kg, route intravenous; conditions: plasma
[41] = test system: Mus musculus; assay: Toxicity in nude BALB/c mouse xenografted with human PC3 cells assessed as maximum body weight loss at 50 mg/kg, po QD for 21 days measured on day 17; type: organism-based, PC-3; set-up: dose 50 mg/kg, route oral; conditions: in vivo, 504 h
[42] = test system: Mus musculus; assay: Toxicity in nude BALB/c mouse xenografted with human A2780 cells assessed as mortality at 50 mg/kg, po QD for 21 days measured on day 9; type: organism-based; set-up: dose 50 mg/kg, route oral; conditions: in vivo, 504 h
[43] = Tmax in nude BALB/c mouse at 50 mg/kg, po; type: ADME, organism-based; set-up: dose 50 mg/kg, route oral; conditions: in vivo
[44] = Time required for attaining concentration above IC50 of HCT116 in tumor of nude BALB/c mouse xenografted with HCT116 cells at 50 mg/kg, po administered as single dose; type: ADME, organism-based, Neoplasm, HCT-116; set-up: dose 50 mg/kg, route oral; conditions: in vivo
[45] = Cmax in Wistar rat at 10 mg/kg, po; type: ADME, organism-based; set-up: dose 10 mg/kg, route oral; conditions: in vivo
[46] = Apparent oral clearance in Beagle dog at 10 mg/kg, po; type: ADME, organism-based, Canis lupus familiaris; set-up: dose 10 mg/kg, route oral; conditions: in vivo
[47] = test system: PC-3; assay: Antitumor activity against human PC3 cells xenografted in nude BALB/c mouse assessed as tumor growth inhibition at 50 mg/kg, po qd for 21 days measured on day 22; type: functional; conditions: read-out: TGI
[48] = test system: Mus musculus; assay: Toxicity in nude BALB/c mouse xenografted with human MV4-11 cells assessed as maximum body weight loss at 25 mg/kg, po QD for 21 days measured on day 10; type: organism-based; set-up: dose 25 mg/kg, route oral; conditions: in vivo, 504 h
[49] = test system: Ramos; assay: Antitumor activity against human Ramos cells xenografted in nude BALB/c mouse assessed as tumor growth inhibition at 50 mg/kg, po qd for 21 days measured on day 15; type: functional; conditions: read-out: TGI
[50] = test system: Mus musculus; assay: Toxicity in po dosed athymic nu/nu Harlan mouse with xenografted human HCT116 cells assessed as treatment-related mortality at 200 mg/kg,; type: organism-based, HCT-116; set-up: dose 200 mg/kg, route oral; conditions: in vivo

Chain of Stromelysin-1 (Homo sapiens) (P08254 100-477 limits assumed): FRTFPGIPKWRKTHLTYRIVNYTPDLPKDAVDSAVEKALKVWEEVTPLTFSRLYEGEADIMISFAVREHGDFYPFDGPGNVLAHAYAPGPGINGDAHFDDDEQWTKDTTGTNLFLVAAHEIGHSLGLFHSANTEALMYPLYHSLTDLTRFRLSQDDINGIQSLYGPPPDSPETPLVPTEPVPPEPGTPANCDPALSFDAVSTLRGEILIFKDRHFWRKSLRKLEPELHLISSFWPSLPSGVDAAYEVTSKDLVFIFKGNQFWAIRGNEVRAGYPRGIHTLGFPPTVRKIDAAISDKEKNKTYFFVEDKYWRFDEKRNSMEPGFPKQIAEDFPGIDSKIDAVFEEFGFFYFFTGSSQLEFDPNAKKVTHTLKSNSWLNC

**Q.** What does the source list for CCCCc1nc2cc(/C=C/C(=O)NO)ccc2n1CCN(CC)CC.Cl.Cl?
**A.** CL/F [1]: 2550 mL/min/kg; inhibition [2]: inactive; Activity [3]: 3.7%; Activity [4]: Non-toxic; half-life [5]: 136 min; half-life [6]: 53.4 min; half-life [7]: 27 min; Activity [8]: 12%; Activity [9]: Non-toxic; AUC(0-inf) [10]: 3.22 µM·h; Tmax [11]: 45 min; inhibition (INH) [12]: Not Active; fraction unbound at 1000 ng/mL [13]: 0.082; CL/F [14]: 153 mL/min/kg; Vd [15]: 4.24 L/kg; Activity [16]: Non-toxic; half-life [17]: 247 min; Time [18]: 10 h; solubility [19]: > 50 mg/mL; IC50 [20]: 100 nM; inhibition in vivo at 50 mg/kg [21]: 66%; Vd [22]: 3.46 L/kg; CL/F [23]: 24.2 mL/min/kg; AUC(0-inf) [24]: 4.27 µM·h; IC50 [25]: 140 nM; Time [26]: 16 h; Activity [27]: 7.1%; Papp B→A [28]: 19.4 ×10⁻⁶ cm/s; AUC(0-inf) [29]: 0.181 µM·h; inhibition in vivo at 50 mg/kg [30]: 44%; Vd [31]: 1.66 L/kg; Activity [32]: Non-toxic; Activity [33]: 19.9%; fraction unbound at 1000 ng/mL [34]: 0.061; half-life [35]: 7.8 min; fraction unbound at 1000 ng/mL [36]: 0.07; AUC(0-inf) [37]: 2.52 µM·h; Activity [38]: Non-toxic; fraction unbound at 1000 ng/mL [39]: 0.165; AUC(0-inf) [40]: 1.15 µM·h; Activity [41]: 7.7%; Activity [42]: Non-toxic; Tmax [43]: 10.2 min; Time [44]: 5.1 h; Cmax [45]: 139 nM; CL/F [46]: 38.2 mL/min/kg; inhibition in vivo at 50 mg/kg [47]: 66%; Activity [48]: 10%; inhibition in vivo at 50 mg/kg [49]: 75%

**Q.** Which Activity [50] does the source give for CCCCCCc1nc2cc(/C=C/C(=O)NO)ccc2n1CCN(C)C here?
**A.** The Activity was “Toxic”.

Reference: ChEMBL document CHEMBL1828590 (J Med Chem, 2011)
